± gives the standard deviation of the averaged measurements.
Experiments:
Assay in all cases: level (log10 ratio to DMSO vehicle control); higher = higher biomarker level / cell amount than vehicle control
[1] = compound: C=CC(=O)OCCC(F)(F)C(F)(F)C(F)(F)C(F)(F)C(F)(F)C(F)(F)C(F)(F)C(F)(F)F [8:2 Fluorotelomer acrylate]; conditions: in DMSO
Experimental: (§1)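 BioMAP Diversity Plus panel of 12 human primary cell co-culture systems (3C, 4H, LPS, SAg, BT, BF4T, BE3C, CASM3C, HDF3CGF, KF3CT, MyoF, Mphg). Compounds were added 1 h before stimulation and left for 24 h (MyoF 48 h; BT 72 h for soluble read-outs or 6 d for IgG). Biomarkers were read by ELISA, cytotoxicity by SRB, PBMC viability and proliferation by Alamar Blue. Each well value was divided by the mean of 8 DMSO control wells on the same plate and log10 transformed; duplicate blinded samples were tested at 4 concentrations.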

[2] = compound: OCCCCC(F)(F)C(F)(F)C(F)(F)C(F)(F)F [4:4 Fluorotelomer alcohol]; conditions: in DMSO
Experimental: as §1

[3] = compound: OCC(F)(F)C(F)(F)C(F)(F)C(F)(F)C(F)(F)C(F)(F)C(F)(F)C(F)(F)C(F)(F)C(F)(F)C(F)(F)F [11:1 Fluorotelomer alcohol]; conditions: in DMSO
Experimental: as §1

[4] = compound: C=CC(=O)OCC(F)(F)C(F)(F)C(F)(F)C(F)(F)COC(=O)C=C [1H,1H,6H,6H-Perfluorohexane-1,6-diol diacrylate]; conditions: 6700 nM; in DMSO
Experimental: as §1

[5] = compound: O=S(=O)(OCC(F)(F)F)C(F)(F)C(F)(F)C(F)(F)C(F)(F)F [2,2,2-Trifluoroethyl perfluorobutanesulfonate]; conditions: in DMSO
Experimental: as §1

[6] = compound: FC(F)(F)COC(OCC(F)(F)F)OCC(F)(F)F [tris(Trifluoroethoxy)methane]; conditions: in DMSO
Experimental: as §1

[7] = compound: O=C(O)C(F)(F)C(F)(F)C(F)(F)C(F)(F)C(F)(F)C(F)(F)C(F)(F)F [Perfluorooctanoic acid]; conditions: in DMSO
Experimental: as §1

KF3CT:IL-1alpha
level (log10) ([1]; 6700 nM): 0.0005 ± 0.011 | level (log10) ([1]; 20000 nM): -0.0245 ± 0.00071 | level (log10) ([1]; 60000 nM): -0.0355 ± 0.04 | level (log10) ([2]; 6700 nM): 0.0145 ± 0.029 | level (log10) ([2]; 20000 nM): 0.005 ± 0.042 | level (log10) ([2]; 60000 nM): 0.019 ± 0.03 | level (log10) ([3]; 1100 nM): 0.0015 ± 0.028 | level (log10) ([3]; 3300 nM): -0.0425 ± 0.0064 | level (log10) ([3]; 10000 nM): -0.021 ± 0.011 | level (log10) [4]: -0.0545 ± 0.035 | level (log10) ([5]; 6700 nM): -0.011 ± 0.03 | level (log10) ([5]; 20000 nM): -0.003 ± 0.011 | level (log10) ([5]; 60000 nM): 0.0195 ± 0.0078 | level (log10) ([6]; 6700 nM): -0.0045 ± 0.0078 | level (log10) ([6]; 20000 nM): -0.0055 ± 0.0092 | level (log10) ([6]; 60000 nM): 0.0055 ± 0.019 | level (log10) ([7]; 6700 nM): 0.018 ± 0.0057 | level (log10) ([7]; 20000 nM): 0.012 ± 0.0014 | level (log10) ([7]; 60000 nM): -0.0395 ± 0.0035

KF3CT:MMP-9
level (log10) ([1]; 6700 nM): -0.042 | level (log10) ([1]; 20000 nM): -0.0885 ± 0.044 | level (log10) ([1]; 60000 nM): -0.132 ± 0.047 | level (log10) ([2]; 6700 nM): -0.011 ± 0.013 | level (log10) ([2]; 20000 nM): -0.003 ± 0.034 | level (log10) ([2]; 60000 nM): 0.011 ± 0.021 | level (log10) ([3]; 1100 nM): -0.042 ± 0.0099 | level (log10) ([3]; 3300 nM): -0.071 ± 0.027 | level (log10) ([3]; 10000 nM): -0.0545 ± 0.026 | level (log10) [4]: -0.035 ± 0.064 | level (log10) ([5]; 6700 nM): -0.012 ± 0.017 | level (log10) ([5]; 20000 nM): -0.016 ± 0.035 | level (log10) ([5]; 60000 nM): -0.001 ± 0.025 | level (log10) ([6]; 6700 nM): -0.0015 ± 0.016 | level (log10) ([6]; 20000 nM): -0.0105 ± 0.00071 | level (log10) ([6]; 60000 nM): 0.004 ± 0.013 | level (log10) ([7]; 6700 nM): -0.0225 ± 0.026 | level (log10) ([7]; 20000 nM): 0.003 ± 0.0099 | level (log10) ([7]; 60000 nM): 0.028 ± 0.011

KF3CT:PAI-I
level (log10) ([1]; 6700 nM): -0.009 ± 0.014 | level (log10) ([1]; 20000 nM): 0.0155 ± 0.012 | level (log10) ([1]; 60000 nM): 0.001 ± 0.0085 | level (log10) ([2]; 6700 nM): -0.012 ± 0.017 | level (log10) ([2]; 20000 nM): -0.0075 ± 0.013 | level (log10) ([2]; 60000 nM): -0.009 ± 0.013 | level (log10) ([3]; 1100 nM): -0.002 ± 0.0071 | level (log10) ([3]; 3300 nM): -0.0055 ± 0.012 | level (log10) ([3]; 10000 nM): 0.001 ± 0.023 | level (log10) [4]: 0.048 ± 0.0071 | level (log10) ([5]; 6700 nM): 0.0005 ± 0.028 | level (log10) ([5]; 20000 nM): 0.003 ± 0.033 | level (log10) ([5]; 60000 nM): 0.0265 ± 0.018 | level (log10) ([6]; 6700 nM): -0.0035 ± 0.0035 | level (log10) ([6]; 20000 nM): -0.006 ± 0.0014 | level (log10) ([6]; 60000 nM): 0.0025 ± 0.0092 | level (log10) ([7]; 6700 nM): 0.0005 ± 0.021 | level (log10) ([7]; 20000 nM): -0.015 ± 0.02 | level (log10) ([7]; 60000 nM): -0.079 ± 0.0028

KF3CT:SRB
level (log10) ([1]; 6700 nM): -0.0005 ± 0.005 | level (log10) ([1]; 20000 nM): 0.002 ± 0.0085 | level (log10) ([1]; 60000 nM): 0.0105 ± 0.013 | level (log10) ([2]; 6700 nM): -0.02 ± 0.0085 | level (log10) ([2]; 20000 nM): -0.011 ± 0.017 | level (log10) ([2]; 60000 nM): 0.004 ± 0.018 | level (log10) ([3]; 1100 nM): -0.01 ± 0.0057 | level (log10) ([3]; 3300 nM): -0.0285 ± 0.005 | level (log10) ([3]; 10000 nM): -0.014 ± 0.0057 | level (log10) [4]: 0.003 ± 0.0057 | level (log10) ([5]; 6700 nM): -0.001 | level (log10) ([5]; 20000 nM): -0.0045 ± 0.0021 | level (log10) ([5]; 60000 nM): -0.0025 ± 0.0092 | level (log10) ([6]; 6700 nM): -0.0125 ± 0.00071 | level (log10) ([6]; 20000 nM): -0.0015 ± 0.0035 | level (log10) ([6]; 60000 nM): -0.0035 ± 0.012 | level (log10) ([7]; 6700 nM): -0.005 ± 0.0014 | level (log10) ([7]; 20000 nM): -0.003 ± 0.0014 | level (log10) ([7]; 60000 nM): 0.007 ± 0.037

KF3CT:TIMP-2
level (log10) ([1]; 6700 nM): -0.0125 ± 0.037 | level (log10) ([1]; 20000 nM): -0.02 | level (log10) ([1]; 60000 nM): 0.016 ± 0.013 | level (log10) ([2]; 6700 nM): 0.0135 ± 0.0064 | level (log10) ([2]; 20000 nM): 0.0075 ± 0.019 | level (log10) ([2]; 60000 nM): -0.0015 ± 0.015 | level (log10) ([3]; 1100 nM): -0.014 ± 0.0028 | level (log10) ([3]; 3300 nM): -0.0405 ± 0.013 | level (log10) ([3]; 10000 nM): 0.002 ± 0.016 | level (log10) [4]: -0.088 ± 0.0057 | level (log10) ([5]; 6700 nM): -0.049 ± 0.0057 | level (log10) ([5]; 20000 nM): -0.0215 ± 0.049 | level (log10) ([5]; 60000 nM): -0.0495 ± 0.00071 | level (log10) ([6]; 6700 nM): -0.0025 ± 0.021 | level (log10) ([6]; 20000 nM): -0.007 ± 0.011 | level (log10) ([6]; 60000 nM): -0.0045 ± 0.012 | level (log10) ([7]; 6700 nM): -0.0195 ± 0.015 | level (log10) ([7]; 20000 nM): 0.0025 ± 0.016 | level (log10) ([7]; 60000 nM): 0.035 ± 0.038

KF3CT:uPA
level (log10) ([1]; 6700 nM): 0.003 ± 0.013 | level (log10) ([1]; 20000 nM): -0.0165 ± 0.037 | level (log10) ([1]; 60000 nM): -0.004 ± 0.0014 | level (log10) ([2]; 6700 nM): 0.01 ± 0.016 | level (log10) ([2]; 20000 nM): -0.0005 ± 0.00071 | level (log10) ([2]; 60000 nM): 0.0005 ± 0.022 | level (log10) ([3]; 1100 nM): -0.0115 ± 0.015 | level (log10) ([3]; 3300 nM): -0.0335 ± 0.00071 | level (log10) ([3]; 10000 nM): -0.023 ± 0.016 | level (log10) [4]: -0.057 ± 0.0057 | level (log10) ([5]; 6700 nM): -0.0085 ± 0.0021 | level (log10) ([5]; 20000 nM): -0.043 ± 0.079 | level (log10) ([5]; 60000 nM): -0.075 ± 0.0042 | level (log10) ([6]; 6700 nM): -0.0005 ± 0.043 | level (log10) ([6]; 20000 nM): -0.011 ± 0.018 | level (log10) ([6]; 60000 nM): -0.014 ± 0.023 | level (log10) ([7]; 6700 nM): 0.0095 ± 0.0021 | level (log10) ([7]; 20000 nM): 0.012 ± 0.0042 | level (log10) ([7]; 60000 nM): 0.013 ± 0.017

MyoF:CD106/VCAM-1
level (log10) ([1]; 6700 nM): -0.012 ± 0.0071 | level (log10) ([1]; 20000 nM): -0.0335 ± 0.0078 | level (log10) ([1]; 60000 nM): -0.027 ± 0.023 | level (log10) ([2]; 6700 nM): -0.004 ± 0.016 | level (log10) ([2]; 20000 nM): -0.01 ± 0.018 | level (log10) ([2]; 60000 nM): -0.0055 ± 0.0078 | level (log10) ([3]; 1100 nM): -0.0055 ± 0.037 | level (log10) ([3]; 3300 nM): -0.0075 ± 0.022 | level (log10) ([3]; 10000 nM): -0.0025 ± 0.00071 | level (log10) [4]: -0.219 ± 0.035 | level (log10) ([5]; 6700 nM): -0.01 ± 0.011 | level (log10) ([5]; 20000 nM): 0.026 ± 0.014 | level (log10) ([5]; 60000 nM): -0.0075 ± 0.0021 | level (log10) ([6]; 6700 nM): -0.021 ± 0.034 | level (log10) ([6]; 20000 nM): -0.03 ± 0.028 | level (log10) ([6]; 60000 nM): -0.034 ± 0.0057 | level (log10) ([7]; 6700 nM): 0.0065 ± 0.011 | level (log10) ([7]; 20000 nM): 0.004 ± 0.0028 | level (log10) ([7]; 60000 nM): 0.0095 ± 0.00071
